Holding throughout (format): cell-based
One assay addresses T1, GPR139 E105A3x29 (Homo sapiens, UniProt Q6DWJ6, E105A).
T1 construct: mGluR5 signal peptide (N); expressed in transfected cells; host or cells: HEK293
T1 sequence (Q6DWJ6 2-353 E105A limits assumed): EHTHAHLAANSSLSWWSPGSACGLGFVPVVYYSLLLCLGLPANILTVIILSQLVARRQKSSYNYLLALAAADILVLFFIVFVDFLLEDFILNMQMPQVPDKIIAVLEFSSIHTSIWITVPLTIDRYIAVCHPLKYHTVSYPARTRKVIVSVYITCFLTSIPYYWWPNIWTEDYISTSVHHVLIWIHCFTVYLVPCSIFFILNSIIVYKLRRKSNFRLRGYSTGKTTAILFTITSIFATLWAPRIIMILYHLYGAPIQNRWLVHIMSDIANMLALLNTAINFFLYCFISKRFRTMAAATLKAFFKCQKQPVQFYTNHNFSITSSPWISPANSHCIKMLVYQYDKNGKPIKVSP
Nature of the assay: Fluo-4 Ca2+-assay, GPR139 mutant E105A. An excerpt:
(§1) To study the influence of specific amino acids in the predicted binding pocket on receptor function, the desired mutations were introduced into an N-terminally c-myc-tagged wild type human GPR139 (NM_001002911.3) in the pEGFP-N1 vector (BD Biosciences)[32], [33]. As previously described, these plasmids carry the signal peptide of mGluR5 to promote cell surface expression followed by a c-myc epitope to enable detection of total and surface expression by ELISA, followed by an engineered MluI and NotI site for easy insertion of the receptor of interest. Furthermore, the start-codon in the GPR139 sequence was deleted to ensure c-myc-tagging. […]
(§2) The Ca^2+ measurements were preformed using the Fluo-4 NW Calcium Assay Kit (Invitrogen, Molecular Probes, F36206) as previously described. […] Intracellular calcium changes were recorded as indicated on either a NOVOstar (BMG Labtech) at 37 °C with an excitation filter of 485 nm and an emission filters 520 nm or a FlexStation 3 Benchtop Multi-Mode Microplate Reader (Molecular Devices) at 37 °C with an excitation wavelength of 485 nm and emission of 525 nm.
(§3) All pharmacological data have been analyzed by using Prism 6.0 (GraphPad Software Inc., San Diego). […] Changes in potency (pEC50) and span of myc-GPR139(WT) in comparison to untagged GPR139(WT) was statistically analyzed with a paired t-test and significance was accepted at p < 0.05. […]

A further assay has as its target T2, GPR139 H251A6x58 (Homo sapiens, UniProt Q6DWJ6, H251A).
T2 construct: mGluR5 signal peptide (N); expressed in transfected cells; host or cells: HEK293
T2 sequence (Q6DWJ6 2-353 H251A limits assumed): T1 sequence (Q6DWJ6 2-353 E105A limits assumed) with A104E, H250A
The assay is described as follows: Fluo-4 Ca2+-assay, GPR139 mutant H251A.
Source text: as §1, §2, §3

A further assay addresses T3, GPR139 H113A3x37 (Homo sapiens, UniProt Q6DWJ6, H113A).
T3 construct: mGluR5 signal peptide (N); expressed in transfected cells; host or cells: HEK293
T3 sequence (Q6DWJ6 2-353 H113A limits assumed): T1 sequence (Q6DWJ6 2-353 E105A limits assumed) with A104E, H112A
The assay is described as follows: Fluo-4 Ca2+-assay, GPR139 mutant H113A.
Source text: as §1, §2, §3

SMILES strings stand for the structures. Changes are numbered by the printed parent chain.

For the compound `COc1cc(OC)cc(C(=O)NNC(=O)Nc2cccc3ccccc23)c1` [Compound 1a], the EC50 (in general, the concentration giving half of the maximal effect) was 129 nM at GPR139 E105A3x29 (E105A mutant), 813 nM on GPR139 H251A6x58 (H251A mutant) and 851 nM at GPR139 H113A3x37 (H113A mutant). For the same compound, the Emax (usually the greatest response seen or fitted, relative to the assay's reference) is 288 ± 27% on GPR139 E105A3x29 (E105A, normalized to buffer (0%) and 8 µM 1a (100%)); 84 ± 11% at GPR139 H251A6x58 (H251A, normalized to buffer (0%) and 8 µM 1a (100%)); 97 ± 9% at GPR139 H113A3x37 (H113A, normalized to buffer (0%) and 8 µM 1a (100%)).

These data come from publication PMC5430874 (Scientific Reports, 2017).
